Results from patent publication US8673325B1, “Cosmetic compositions comprising EPA and salicylic acid and methods of making and using same” (Dignity Sciences Limited, priority 2012, dated 2014).
Converted amounts (≈) assume the structure as drawn. Like-named read-outs stand apart in the source and are kept apart here.

Tested on: P. acnes NCTC737
Assay: MIC and MBC against P. acnes by broth micro-dilution (CLSI M11-A5)
Assay type: cell-based
Details: for MIC: anaerobic 37° C., 48 h, lowest concentration preventing visible growth
Procedure: Neomycin (“NEO”) was obtained and used as a 10 mg/mL solution in sterile saline. P. acnes NCTC737 was obtained from the National Collection of Type Cultures (Porton Down, UK). Minimum inhibitory (MIC) and bactericidal (MBC) concentration determinations MICs and MBCs were determined against P. acnes by broth micro-dilution according to protocol M11-A5 published by the Clinical and Laboratory Standards Institute (CLSI, 2001). […] ([…] Workstation; Don Whitley Scientific Ltd., Shipley, UK). Absorbance readings (A600) for the bacterial suspensions were determined and fresh media was used to adjust the inoculums to 1×10^7 CFU/mL. Inoculum sizes were confirmed by diluting in phosphate-buffered saline (PBS) and plating on SBA. Each well was inoculated with 5 μL of bacterial suspension. Negative control wells contained culture medium only, while positive control wells contained media inoculated with bacterial suspension. Further inoculated wells controlled for the antimicrobial effects of the greatest concentration of solvent (DMSO or ethanol) used in any of the test wells (ca. 10%). Microtitre plates were incubated anaerobically at 37° C. for 48 h, and then MICs were determined as the lowest concentration of each compound that prevented visible bacterial growth. MBCs were determined by plating 50 μL from each well showing no visible growth on to SBA and incubating these plates anaerobically at 37° C. for 96 h. […] MICs and MBCs were performed in duplicate.

[1] = Cutibacterium acnes, NCTC737, 48 h, read-out: MIC
[2] = Cutibacterium acnes, NCTC737, lowest concentration that killed >99.9% of the initial inoculum, read-out: MBC

| Structure (SMILES) | MIC [1] [µg/mL] | MBC (MEC) [mg/mL] | MIC [µg/mL] | MBC [2] [mg/mL] | MBC (lowest concentration that killed >99.9% of the initial inoculum) [mg/mL] |
| --- | --- | --- | --- | --- | --- |
| O=C(O)CCCCCCCC(=O)O [AZA, azelaic acid] | > 4100 | >4.096 | >4096 |  |  |
| O=C(OOC(=O)c1ccccc1)c1ccccc1 [BPO, benzoyl peroxide] | 64 (≈ 264 µM) | >4.096 |  | > 4.1 |  |
| CC/C=C\C/C=C\C/C=C\C/C=C\C/C=C\CCCC(=O)O [EPA, eicosapentaenoic acid] | 64 to 128 (≈ 212 to 423 µM) | >4.096 | 128 (≈ 423 µM) | > 4.1 |  |
| NS(=O)(=O)c1cc(C(=O)O)c(NCc2ccco2)cc1Cl [FUS, furosemide] | 2 (≈ 6.05 µM) | 0.256 (≈ 774 µM) |  | 0.256 (≈ 774 µM) |  |
| CCCCC/C=C\C/C=C\C/C=C\CCCCC(=O)O [GLA, gamma-linolenic acid] | 64 to 128 (≈ 230 to 460 µM) | >4.096 | 64 (≈ 230 µM) | > 4.1 |  |
| NC[C@@H]1O[C@H](O[C@H]2[C@@H](O)[C@H](O[C@@H]3[C@@H](O)[C@H](N)C[C@H](N)[C@H]3O[C@H]3O[C@H](CN)[C@@H](O)[C@H](O)[C@H]3N)O[C@@H]2CO)[C@H](N)[C@@H](O)[C@@H]1O [NEO, Neomycin] |  | 0.016 (≈ 26 µM) | 8 (≈ 13 µM) |  | 0.016 (≈ 26 µM) |
| O=C(O)c1ccccc1O [SA, salicylic acid] | 64 (≈ 463 µM) | >4.096 |  | > 4.1 |  |
